Laboratory results reported in patent US4393225A, “AI-77 Compounds and pharmaceutically acceptable salts thereof” (Asahi Kasei Kogyo Kabushiki Kaisha, priority 1979, dated 1983).
Like-named read-outs stand apart in the source and are kept apart here.

System: ulcer
Experiment: Anti-ulcer test (restraint and water immersion ulcer in rats, i.p.)
Type: in vivo, Male Wistar rats
Settings: Rattus norvegicus, ip, read-out: % Inhibition of Ulcer
In short: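 Male Wistar rats (~150 g), fasted 24 h, dosed i.p. with compound in physiological saline; 1 h later restrained and immersed to xiphisternum in 21 °C water for 6 h. Stomachs examined microscopically, ulcers scored 0–3, and percent inhibition calculated.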

Compound	inhibition in vivo at 50 mg/kg (50 mg/kg i.p.)	inhibition in vivo at 50 mg/kg
CCOC(C(=O)NC(CC(C)C)C1Cc2cccc(O)c2C(=O)O1)C1OC(=O)CC1N (stereo not drawn) [IIIa-16-7]	72%	–
COC(C(=O)NC(CC(C)C)C1Cc2cccc(OC(C)=O)c2C(=O)O1)C1OC(=O)CC1N (stereo not drawn) [IIIa-17-1]	56%	–
CCCCCCCCCCCCCCCCCC(=O)Oc1cccc2c1C(=O)OC(C(CC(C)C)NC(=O)C(OC)C1OC(=O)CC1N)C2 (stereo not drawn) [IIIa-17-2]	44%	–
CCCC(=O)Oc1cccc2c1C(=O)OC(C(CC(C)C)NC(=O)C(OCC)C1OC(=O)CC1N)C2 (stereo not drawn) [IIIa-17-3]	56%	–
CCC(=O)Oc1cccc2c1C(=O)OC(C(CC(C)C)NC(=O)C(OC)C1OC(=O)CC1N)C2 (stereo not drawn) [IIIa-17-5]	44%	–
CCOC(C(=O)NC(CC(C)C)C1Cc2cccc(OC(=O)C(Cl)(Cl)Cl)c2C(=O)O1)C1OC(=O)CC1N (stereo not drawn) [IIIa-17-6]	56%	–
CC(C)CC(NC(=O)C(O)C1OC(=O)CC1NCC(Cl)(Cl)Cl)C1Cc2cccc(O)c2C(=O)O1 (stereo not drawn) [IIIa-18-12]	94%	–
CC(C)CC(NC(=O)C(O)C1OC(=O)CC1NCc1ccccc1)C1Cc2cccc(O)c2C(=O)O1 (stereo not drawn) [IIIa-18-14]	89%	–
CC(C)CC(NC(=O)C(O)C1OC(=O)CC1NCCCCBr)C1Cc2cccc(O)c2C(=O)O1 (stereo not drawn) [IIIa-18-26]	–	94%
CSCCNC1CC(=O)OC1C(O)C(=O)NC(CC(C)C)C1Cc2cccc(O)c2C(=O)O1 (stereo not drawn) [IIIa-18-38]	94%	–
CCCCCSCCNC1CC(=O)OC1C(O)C(=O)NC(CC(C)C)C1Cc2cccc(O)c2C(=O)O1 (stereo not drawn) [IIIa-18-39]	94%	–
C#CCNC1CC(=O)OC1C(O)C(=O)NC(CC(C)C)C1Cc2cccc(O)c2C(=O)O1 (stereo not drawn) [IIIa-18-46]	100%	–
CC(C)CC(NC(=O)C(O)C1OC(=O)CC1NCCCCCO)C1Cc2cccc(O)c2C(=O)O1 (stereo not drawn) [IIIa-18-52]	94%	–
CC(C)=CCNC1CC(=O)OC1C(O)C(=O)NC(CC(C)C)C1Cc2cccc(O)c2C(=O)O1 (stereo not drawn) [IIIa-18-70]	94%	–
CCNC1CC(=O)OC1C(OC(C)=O)C(=O)NC(CC(C)C)C1Cc2cccc(O)c2C(=O)O1 (stereo not drawn) [IIIa-19-1]	66%	–
CCCCCCCCCCCCCCCCCCNC1CC(=O)OC1C(OC(C)=O)C(=O)NC(CC(C)C)C1Cc2cccc(O)c2C(=O)O1 (stereo not drawn) [IIIa-19-3]	56%	–
CCNC1CC(=O)OC1C(OC(=O)CC)C(=O)NC(CC(C)C)C1Cc2cccc(O)c2C(=O)O1 (stereo not drawn) [IIIa-19-9]	66%	–
CCCCNC1CC(=O)OC1C(OC(=O)CCC)C(=O)NC(CC(C)C)C1Cc2cccc(O)c2C(=O)O1 (stereo not drawn) [IIIa-19-10]	66%	–
CCNC1CC(=O)OC1C(OC(C)=O)C(=O)NC(CC(C)C)C1Cc2cccc(OC(C)=O)c2C(=O)O1 (stereo not drawn) [IIIa-20-1]	–	56%
CCNC1CC(=O)OC1C(OC(=O)CC)C(=O)NC(CC(C)C)C1Cc2cccc(OC(=O)C(C)C)c2C(=O)O1 (stereo not drawn) [IIIa-20-2]	56%	–
CC(=O)Oc1cccc2c1C(=O)OC(C(CC(C)C)NC(=O)C(OC(C)=O)C1OC(=O)CC1NCC(Cl)(Cl)Cl)C2 (stereo not drawn) [IIIa-20-10]	56%	–
CCNC1CC(=O)OC1C(O)C(=O)NC(CC(C)C)C1Cc2cccc(OC(C)=O)c2C(=O)O1 (stereo not drawn) [IIIa-21-1]	78%	–
CC(=O)Oc1cccc2c1C(=O)OC(C(CC(C)C)NC(=O)C(O)C1OC(=O)CC1NCC(C)C)C2 (stereo not drawn) [IIIa-21-2]	72%	–
CCCCCCCCCCCCCCCCCCNC1CC(=O)OC1C(O)C(=O)NC(CC(C)C)C1Cc2cccc(OC(C)=O)c2C(=O)O1 (stereo not drawn) [IIIa-21-3]	66%	–
CCNC1CC(=O)OC1C(O)C(=O)NC(CC(C)C)C1Cc2cccc(OC(=O)CC)c2C(=O)O1 (stereo not drawn) [IIIa-21-9]	66%	–
CC(C)CNC1CC(=O)OC1C(O)C(=O)NC(CC(C)C)C1Cc2cccc(OCC(C)C)c2C(=O)O1 (stereo not drawn) [IIIa-22-4]	94%	–
CCCCCCCCCCCCCCCCCCNC1CC(=O)OC1C(O)C(=O)NC(CC(C)C)C1Cc2cccc(OCCCCC)c2C(=O)O1 (stereo not drawn) [IIIa-22-6]	72%	–
